The results in this text go back to patent US11912668B2, “GCN2 and perk kinase inhibitors and methods of use thereof” (Deciphera Pharmaceuticals, LLC, priority 2020, dated 2024).

What all share (type): cell-based
One assay has as its system CCRF-CEM leukemia cells. The assay is described as follows: CCRF-CEM ASNase cell proliferation assay, phenotypic assay for cellular inhibition of GCN2. The settings on record: Homo sapiens; ASNase treated CCRF-CEM cells, 1 mU/mL ASNase, 72 h. The gist of the method: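 Cells were seeded at ten thousand per well in RPMI-1640 with 10% heat-inactivated FBS and treated in triplicate with serially diluted compound plus 1 mU/mL ASNase for 72 h at 37 °C, 5% CO2. Resazurin was then added for 6 h, with fluorescence read at ex 540/em 600 nm to derive IC50 values.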

The subject of assay [1] is H929, RPMI8226, GA-10 and DoHH-2 cells. The assay can be described thus: Inhibition of multiple myeloma and B-cell lymphoma cell proliferation. The settings on record: combination with SOC agents for multiple myeloma or B cell lymphomas. Here is the method:
H929, RPMI8226, GA-10, and DoHH-2 cells (catalog #CRL-9068) were obtained from the American Type Culture Collection (ATTC, Manassas, VA). H929 Cells were maintained in RPMI-1640 medium supplemented with 20% heat-inactivated fetal bovine serum (catalog #A3840002, ThermoFisher Scientific, Waltham, MA), 1% Penicillin/Streptomycin/L-Glutamine (catalog #10378016, ThermoFisher Scientific, Waltham, MA), and 0.05 mM 2-mercaptoethanol (catalog #21985-023, ThermoFisher Scientific, Waltham, MA). […]
For cell proliferation assay appropriate number of cells (Forty thousand cells for H929; Twenty thousand cells for RPMI8226, and GA-10; Eight thousand cells for DoHH-2) were seeded per well in 200 μL in respective medium were dispensed into a 96-well black clear bottom plate. […] Plates were read on a Synergy2 or equivalent reader (Biotek, Winooski VT) using an excitation of 540 nm and an emission of 600 nm. At the end of the incubation of DoHH-2, cell viability was determined using CellTiter-Glo® assay (Promega, Madison, WI). Luminescence was measured using EnVision MultiLabel Reader (PerkinElmer, Waltham, MA). Data was analyzed using GraphPad Prism software (GraphPad, San Diego, CA) to calculate IC50 values.

Assay [2] relates to ATF4 in HCT116 colorectal cancer cells. The assay is described as follows: HCT116 amino acid starved (-AA) ATF4 assay (Western blot). The settings on record: Homo sapiens, HCT-116, 4 h. An outline of the steps: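 HCT116 cells switched to amino-acid-free EBSS (10% dialyzed FBS, 5.5 mM glucose, vitamins) with serial compound dilutions for 4 h at 37° C. Lysates Western blotted for phospho-GCN2 (Thr899), total GCN2, ATF4 and beta-actin; IC50 values derived from quantified bands.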
Background: A western blot detects proteins with antibodies after separation by electrophoresis.

Molecules are shown by their SMILES. A value given as a limit tells only on which side of the number the result lay.

In general, IC50 refers to the concentration that inhibits the measured activity by half.

In the case of `CNc1ncc2cc(-c3cccc(NS(=O)(=O)c4cc(Cl)cnc4OC)c3F)c(NC)nc2n1` [Compound 16], the half-inhibitory concentration (IC50) (in the assay on CCRF-CEM leukemia cells; in assay [2]) was at most 100 nM each time. In assay [1], the “inhibition of cell proliferation in combination with standard of care agents” value is on record as “additivity or synergy”.
